{
  "source": "patent US20100249019A1",
  "about": "“USE OF A PEPTIDE AS A THERAPEUTIC AGENT” (priority 2007, published 2010)",
  "key": {"RAW 264.7 cells": {"test_system": "RAW 264.7 cells", "assay": "Phagocytosis assay (Fluorescein-labeled Escherichia coli, flow cytometry)", "settings": "10 micrograms per ml; 30 min preincubation, 60 min ingestion"}, "HUVEC": {"test_system": "HUVEC", "assay": "Endothelial tube formation assay", "type": "cell-based, human", "settings": "10 micrograms per ml; 20 hours", "procedure": "The endothelial tube formation assay is based on the ability of endothelial cells to form three-dimensional capillary-like tubular structures when cultured on a gel of basement membrane extract. The endothelial tube formation assay represents a powerful model for studying inhibition and induction of angiogenesis. Pre-labeled HUVEC with Calcein AM were seeded in a 96-well culture plate coated with extracellular metrix (Chemicon international Cat. ECM625) and treated with test peptides—10 micrograms per ml—in full growth medium. Positive control wes vehicle only. The endothelial cells were allowed to form tubes foe 20 hours and were then examined under an inverted fluorescent microscope. Duplicate wells for each treatment were photographed and quantitatevily analyzed for an average tubule length using image analysis software ImageProPlus. Raw data were expressed as average tubule lengths in pixels±standard deviation. Statistic p values were computed using the Student's t-test."}, "HCMV strain AD169": {"test_system": "HCMV strain AD169", "assay": "HCMV plaque formation assay in MRC-5 cells", "settings": "10 micrograms per ml, 7-10 days"}, "[1]": {"test_system": "hepatitis B virus (HBV) ayw strain", "assay": "HBV experimental assay system (HepG2-2.2.15, TaqMan PCR of HBV DNA)", "type": "cell-based", "settings": "10 micrograms per ml; six days; HBV DNA vs virus control"}, "murine spleen cells": {"test_system": "murine spleen cells", "assay": "Th1/Th2 cytokine profiling assay (Ovalbumin-restimulated spleen cells, CBA kit)", "type": "cell-based, Balb/c mice", "settings": "10 micrograms per ml; 72 hours", "source_text": "The Balb/c mice (originated in 1923, it is a popular strain and is used in many different research disciplines. Also classified as an inbred from the production of 20 or more successive brother-sister matings, the Balb/c mouse is albino and small in size) were immunized on Days 1, 15, and 29 with Ovalbumin (Ovalbumin is the main protein found in egg white, commonly used to stimulate an immunological reaction in test animals) in PBS (5 micrograms/injection). On day 50, spleens of the mice were harvested (3 weeks after last boost with Ovalbumin). […] Thereafter, additional Ovalbumin was added to the cells at 10 micrograms/ml for in vitro restimulation of the cells. 72 hours later, cell supernatants were harvested and assayed using the Becton Dickinson Mouse Th1/Th2 Cytokine CBA Kit."}, "[2]": {"test_system": "Primary Human endothelial cells (HUVEC)", "assay": "Endothelial cell migration assay", "type": "cell-based", "settings": "10 micrograms per ml; 22 hours"}},
  "note": "No end group written: not given here.",
  "data": [
    {"substance": "Val-Pro-Leu-Pro-Ala-Gly-Gly-Gly-Thr-Val-Leu-Thr-Lys-Met-Tyr-Pro-Arg-Gly-Asn-His-Trp-Ala-Val-Gly-His-Leu-Met-NH2 (VPLPAGGGTVLTKMYPRGNHWAVGHLM-NH2) [Peptide 2, Gastrin Releasing Peptide; GRP, commercially available known peptide]", "values": [
      {"measurement": "induction of phagocytosis as compared to control", "setting": "RAW 264.7 cells", "value": 42.9, "unit": "%"},
      {"measurement": "inhibition of the tube formation of human endothelial cells", "setting": "HUVEC", "value": "do not inhibit"},
      {"measurement": "inhibition of HCMV plaque formation as compared to the virus control", "setting": "HCMV strain AD169", "value": 4.0, "unit": "%"},
      {"measurement": "inhibition of HBV replication on tested liver cells", "setting": "[1]", "value": 30.6, "unit": "%"},
      {"measurement": "change of the production of IFN-γ", "setting": "murine spleen cells", "value": "did not significantly change"},
      {"measurement": "change of the production of IL-2", "setting": "murine spleen cells", "value": "did not significantly change"},
      {"measurement": "change of the production of IL-4", "setting": "murine spleen cells", "value": "did not significantly change"},
      {"measurement": "change of the production of TNF-alpha", "setting": "murine spleen cells", "value": "did not significantly change"},
      {"measurement": "decrease of the production of IL-5", "setting": "murine spleen cells", "value": 34.0, "unit": "%"},
      {"measurement": "induction of the production of IL-2", "setting": "murine spleen cells", "value": 67.3, "unit": "%"},
      {"measurement": "inhibition of the migration of human endothelial cells", "setting": "[2]", "value": 26, "unit": "%"}
    ]}
  ]
}
